Laboratory results published in patent publication US12385058B2, “Herbicide tolerance protein, encoding gene thereof and use thereof” (Beijing Dabeinong Biotechnology Co., Ltd., priority 2018, dated 2025).

Test system: maize plants
Assay: Herbicide tolerance of transgenic maize T1 plants (spraying, damage degree)
Type: in vivo
Conditions: 144 g ai/ha (8x Tri.)
Experimental: The degree of damage caused by the herbicide was measured for each plant according to the plant growth status 3 days after spraying (3 DAT), 7 days after spraying (7 DAT), 14 days after spraying (14 DAT) and 21 days after spraying (21 DAT): a growth status equivalent to that of the untreated plants is defined as having a damage degree of 0%; the case where leaves are locally chlorotic and yellow but the normal plant growth is substantially not affected is defined as having a damage degree of 50%; and the case where the whole plant is purple and dying is defined as having a damage degree of 100%. The maize plants into which the ALT02M1-02 nucleotide sequence was introduced were of three strains in total (S15, S16 and S17), the maize plants into which the ALT02M2-02 nucleotide sequence was introduced were of three strains in total (S18, S19 and S20), the maize plants into which the ALT02M3-02 nucleotide sequence was introduced were of three strains in total (S21, S22 and S23), the maize plants into which the ALT02-02 nucleotide sequence was introduced were of three strains in total (S24, S25 and S26), the control maize plants were of two strains in total (S27 and S28), and the wild-type maize plants were of one strain in total (CK2); and 10-15 plants were selected from each strain and tested.

[1] = maize genotype CK2 (wild-type maize plants)
[2] = maize genotype S15 (ALT02M1-02 introduced)
[3] = maize genotype S16 (ALT02M1-02 introduced)
[4] = maize genotype S17 (ALT02M1-02 introduced)
[5] = maize genotype S18 (ALT02M2-02 introduced)
[6] = maize genotype S19 (ALT02M2-02 introduced)
[7] = maize genotype S20 (ALT02M2-02 introduced)
[8] = maize genotype S21 (ALT02M3-02 introduced)
[9] = maize genotype S22 (ALT02M3-02 introduced)
[10] = maize genotype S23 (ALT02M3-02 introduced)
[11] = maize genotype S24 (ALT02-02 introduced)
[12] = maize genotype S25 (ALT02-02 introduced)
[13] = maize genotype S26 (ALT02-02 introduced)
[14] = maize genotype S27 (control maize plants, DBN100830N)
[15] = maize genotype S28 (control maize plants, DBN100830N)

methyl 2-[N-(4-methoxy-6-methyl-1,3,5-triazin-2-yl)-N-methylcarbamoylaminosulfonyl]benzoate [tribenuron-methyl]
Average damage % 3DAT [1]: 46% | Average damage % 7DAT [1]: 86% | Average damage % 14DAT [1]: 100% | Average damage % 21DAT [1]: 100% | Average damage % 3DAT [2]: 5% | Average damage % 7DAT [2]: 0% | Average damage % 14DAT [2]: 0% | Average damage % 21DAT [2]: 0% | Average damage % 3DAT [3]: 6% | Average damage % 7DAT [3]: 0% | Average damage % 14DAT [3]: 0% | Average damage % 21DAT [3]: 0% | Average damage % 3DAT [4]: 3% | Average damage % 7DAT [4]: 0% | Average damage % 14DAT [4]: 0% | Average damage % 21DAT [4]: 0% | Average damage % 3DAT [5]: 0% | Average damage % 7DAT [5]: 0% | Average damage % 14DAT [5]: 0% | Average damage % 21DAT [5]: 0% | Average damage % 3DAT [6]: 0% | Average damage % 7DAT [6]: 0% | Average damage % 14DAT [6]: 0% | Average damage % 21DAT [6]: 0% | Average damage % 3DAT [7]: 0% | Average damage % 7DAT [7]: 0% | Average damage % 14DAT [7]: 0% | Average damage % 21DAT [7]: 0% | Average damage % 3DAT [8]: 3% | Average damage % 7DAT [8]: 0% | Average damage % 14DAT [8]: 0% | Average damage % 21DAT [8]: 0% | Average damage % 3DAT [9]: 2% | Average damage % 7DAT [9]: 0% | Average damage % 14DAT [9]: 0% | Average damage % 21DAT [9]: 0% | Average damage % 3DAT [10]: 0% | Average damage % 7DAT [10]: 0% | Average damage % 14DAT [10]: 0% | Average damage % 21DAT [10]: 0% | Average damage % 3DAT [11]: 14% | Average damage % 7DAT [11]: 5% | Average damage % 14DAT [11]: 0% | Average damage % 21DAT [11]: 0% | Average damage % 7DAT [12]: 4% | Average damage % 14DAT [12]: 0% | Average damage % 21DAT [12]: 0% | Average damage % 3DAT [13]: 20% | Average damage % 7DAT [13]: 7% | Average damage % 14DAT [13]: 0% | Average damage % 21DAT [13]: 0% | Average damage % 3DAT [14]: 61% | Average damage % 7DAT [14]: 82% | Average damage % 14DAT [14]: 100% | Average damage % 21DAT [14]: 100% | Average damage % 3DAT [15]: 53% | Average damage % 7DAT [15]: 78% | Average damage % 14DAT [15]: 100% | Average damage % 21DAT [15]: 100%
